Results reported in US20200061212A1, “SOLID ORAL COMPOSITION CONTAINING DYES” (COSMO TECHNOLOGIES LTD., priority 2016, published 2020).

Experiments:
P-gp [1] = target: T1, P-gp (Homo sapiens, UniProt P08183); experiment: in vitro transporter inhibition study; type: in vitro ADME; details: in vitro studies
[2] = tested on: subjects undergoing screening or surveillance colonoscopy; experiment: Phase III placebo-controlled trial: Adenoma or Carcinoma detection rate and false positive rate at HD white light colonoscopy; type: in vivo, human; details: for ADR: Difference in Proportions of Methylene Low Dose vs. Placebo: 100 mg; for ADR: Difference in Proportions of Methylene Full Dose vs. Methylene Blue Low Dose: 200 mg vs 100 mg; for False Positive Rate: subjects with excisions and without any histologically proven Adenoma or Carcinoma, %: % of subjects with excision
Description: The detection rate was defined as the proportion of patients with at least one histologically proven Adenoma or Carcinoma.
In other words, in the study the standard of care (white light endoscopy) and the chromoendoscopy by oral administration of the MB tablets were compared. In the acquisition and recording of the colonoscopies, the latest and more technologically advanced, high definition (HD) endoscopes were used. Thus, the study allowed the direct comparison of the effect of the MB tablets on the adenoma or carcinoma detection rate to the current gold standard colonoscopy, i.e. the high definition (HD) white light colonoscopy. For this reason, in the context of the present example, the terms “placebo”, “white light high definition endoscopy” (WLHD) and “white light endoscopy” can be used interchangeably, and definitively indicate the current standard of care for the endoscopic examination of the colon. Due to the unavoidable impossibility to obtain double-blinding for the clinical study, since the endoscopist performing the colonoscopy was able to see if the colon was blue colored or unstained, an additional, underpowered, masking group was introduced. […] These patients had the colon stained in blue, but were not taken into account in the calculation of the study parameters. In this way, while performing the colonoscopy, the endoscopist was not aware if a patient belonged to the group of the full dose (whose patients were part of the statistical calculation) or to the “masking” group (whose patients received a lower dose of the composition and were not part of the statistical analysis).
Subjects aged between 50 and 75 years undergoing full colonoscopy for screening or surveillance of colorectal cancer were recruited.
Diet: In preparation for the colonoscopy patients adopted a low residue diet for three days prior to the colonoscopy. On the third day of the low residue diet patients must fast for at least 3 hours before starting intake of the bowel prep and study drug.
Bowel cleansing preparation: all subjects received a full dose regimen of 4 liters PEG-based bowel cleansing preparation starting in the late afternoon (after 6 pm) before the colonoscopy day. The subjects drank at least 250 mL of solution every 15 min, so that the intake of the cleansing preparation, and study drug were completed in 4 hours.
Dose regimen: The subjects were randomized 2:2:1 into three groups.
All the patients participating to the study, regardless of whether they belonged to Group one, Group two or Group three, received a timetable detailing the volumes of bowel cleansing preparation to be consumed, and the times to be respected:
The subjects had to drink about 250 mL of bowel cleansing preparation every 15 minutes, equivalent to 1 liter of bowel cleansing preparation every hour. The timeframe between an oral administration of tablets and the following one had to be 1 hour.
Adenoma was defined as a histologically proven Vienna Grade 3 to 4.2 or a histologically proven traditional serrated adenoma (TSA), or a histologically proven sessile serrated adenoma (SSA). Histologically proven Carcinoma was defined as Vienna Grade 4.3 to 5b.
Day of colonoscopy 02: patients returned to the clinic for the colonoscopy. The colonoscopy was performed using high definition (HD) colonoscope. Narrow-Band-Imaging (NBI) and all other electronic chromoendoscopy and contrast enhancement techniques, as well as zoom endoscopy or magnification were not permitted. The endoscopist performed the full colonoscopy and recorded and removed all the detected adenoma and/or carcinoma. The endoscopist recorded the morphology and size and classified the found polyps, adenomas and carcinomas, and recorded the pit pattern according to the Paris and Kudo's classification and following the endoscopy charter.

P-gp [3] = target: T1, P-gp; experiment: in vitro transporter substrate study; type: in vitro ADME; details: in vitro studies
[4] = low dose 100 mg, Per Protocol N=225
[5] = patients with number of excisions 0-1, FAS
[6] = patients with number of excisions 0-1, PP
[7] = patients with number of excisions ≤3, FAS
[8] = patients with number of excisions ≤3, PP

T1 sequence (P08183 whole entry): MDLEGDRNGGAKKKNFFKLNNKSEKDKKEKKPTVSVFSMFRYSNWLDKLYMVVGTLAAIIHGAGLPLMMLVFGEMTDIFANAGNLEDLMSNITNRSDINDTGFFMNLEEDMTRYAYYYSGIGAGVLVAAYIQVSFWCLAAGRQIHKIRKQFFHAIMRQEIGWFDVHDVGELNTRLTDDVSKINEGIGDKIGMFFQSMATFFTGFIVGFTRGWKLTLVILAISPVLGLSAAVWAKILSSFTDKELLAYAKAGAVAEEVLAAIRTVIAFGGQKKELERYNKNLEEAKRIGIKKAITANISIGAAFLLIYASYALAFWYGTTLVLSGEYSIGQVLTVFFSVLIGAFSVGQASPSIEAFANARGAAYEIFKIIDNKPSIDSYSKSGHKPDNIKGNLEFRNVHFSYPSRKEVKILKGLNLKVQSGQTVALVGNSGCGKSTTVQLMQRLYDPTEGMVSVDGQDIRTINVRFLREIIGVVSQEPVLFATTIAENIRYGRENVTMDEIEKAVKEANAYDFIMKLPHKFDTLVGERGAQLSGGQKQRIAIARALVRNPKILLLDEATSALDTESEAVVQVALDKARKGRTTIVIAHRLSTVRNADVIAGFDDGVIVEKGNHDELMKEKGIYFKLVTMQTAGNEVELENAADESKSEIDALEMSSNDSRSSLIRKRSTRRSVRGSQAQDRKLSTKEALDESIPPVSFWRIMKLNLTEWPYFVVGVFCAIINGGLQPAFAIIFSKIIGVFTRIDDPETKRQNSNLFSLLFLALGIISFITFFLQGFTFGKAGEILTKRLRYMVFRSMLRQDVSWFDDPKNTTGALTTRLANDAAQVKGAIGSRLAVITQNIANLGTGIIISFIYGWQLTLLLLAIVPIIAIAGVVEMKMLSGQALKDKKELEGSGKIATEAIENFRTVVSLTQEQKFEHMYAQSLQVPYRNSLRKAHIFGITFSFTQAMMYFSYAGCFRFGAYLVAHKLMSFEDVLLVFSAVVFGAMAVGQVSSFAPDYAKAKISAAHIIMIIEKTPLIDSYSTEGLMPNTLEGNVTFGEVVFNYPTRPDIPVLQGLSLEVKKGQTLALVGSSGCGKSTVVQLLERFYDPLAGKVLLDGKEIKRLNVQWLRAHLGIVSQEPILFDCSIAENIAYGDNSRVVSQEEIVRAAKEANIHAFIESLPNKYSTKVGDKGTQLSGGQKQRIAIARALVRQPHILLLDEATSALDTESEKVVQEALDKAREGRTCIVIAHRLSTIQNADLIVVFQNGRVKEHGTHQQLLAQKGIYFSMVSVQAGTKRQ

`CN(C)c1ccc2nc3ccc(=[N+](C)C)cc-3sc2c1` [Methylene blue, Methylthioninium Chloride (Methylene Blue)] was tested. Which “inhibition of P-gp” value (P-gp [1]) did it give?
The value was “weak inhibitor”.

What about the “ADR: Difference in Proportions of Methylene Low Dose vs. Placebo” value ([2]; FAS) of the same compound?
The value was 3.64.

What about the “ADR: Difference in Proportions of Methylene Low Dose vs. Placebo” value ([2]; Per Protocol) of the same compound?
Its value is 5.86.

And the “ADR: Difference in Proportions of Methylene Full Dose vs. Methylene Blue Low Dose” value ([2]; FAS)?
The value was 4.84.

And the “ADR: Difference in Proportions of Methylene Full Dose vs. Methylene Blue Low Dose” value ([2]; Per Protocol)?
Its value is 4.46.

What about the “ADR: Difference in Proportions of Methylene Blue Full Dose vs. Placebo” value ([2]; 200 mg, FAS) of the same compound?
Its value is 8.48.

What about the “Absolute difference in ADR between methylene blue full dose and placebo” value ([2]; 200 mg, FAS) of the same compound?
Its value is 8.48%.

And the “Percent decrease in FPR for methylene full dose vs placebo” value ([2]; 200 mg, FAS)?
The value was 21.6%.

What about the “Percent increase in ADR for methylene full dose vs placebo” value ([2]; 200 mg, FAS) of the same compound?
The value was 17.7%.

What about the “Percent decrease in FPR for methylene full dose vs placebo” value ([2]; 200 mg, PP) of the same compound?
The value was 24.8%.

And the “ADR: Difference in Proportions of Methylene Blue Full Dose vs. Placebo” value ([2]; 200 mg, Per Protocol)?
The value was 10.32.

What about the “Absolute difference in ADR between methylene blue full dose and placebo” value ([2]; 200 mg, Per Protocol) of the same compound?
The value was 10.32%.

And the “Percent increase in ADR for methylene blue full dose vs placebo” value ([2]; 200 mg, Per Protocol)?
The value was 21.5%.

What about the “Absolute difference in proportion of subjects between methylene blue full dose and placebo, Table 14 (non-polypoid lesions)” value ([2]; FAS) of the same compound?
Its value is 8.83%.

What about the “Absolute difference in proportion of subjects with diminutive adenomas between methylene blue full dose and placebo” value ([2]; FAS) of the same compound?
Its value is 6.21%.

And the “Difference in False Positive Rates of Methylene Blue Full Dose vs. Methylene Blue Low Dose” value ([2]; FAS)?
The value was −2.88.

And the “Difference in False Positive Rates of Methylene Blue Full Dose vs. Placebo” value ([2]; FAS)?
Its value is −6.44.

And the “Difference in False Positive Rates of Methylene Blue Low Dose vs. Placebo” value ([2]; FAS)?
Its value is −3.56.

And the “Percent increase in proportion of subjects for methylene blue full dose vs placebo, Table 14 (non-polypoid lesions)” value ([2]; FAS)?
Its value is 25.2%.

And the “Percent increase in proportion of subjects with diminutive adenomas for methylene blue full dose vs placebo” value ([2]; FAS)?
The value was 20.1%.

What about the “ADR, %” value ([2]; Number of excisions 0-1, low dose 100 mg, FAS) of the same compound?
Its value is 20.83%.

What about the “ADR, %” value ([2]; Number of excisions 4-6, full dose 200 mg, FAS) of the same compound?
The value was “(85.06) %”.

And the “ADR, %” value ([2]; Number of excisions 4-6, low dose 100 mg, FAS)?
Its value is 87.80%.

And the “ADR, %” value ([2]; Number of excisions >6, full dose 200 mg, FAS)?
Its value is “(97.22) %”.

What about the “ADR, %” value ([2]; Number of excisions >6, low dose 100 mg, FAS) of the same compound?
The value was 100.00%.

And the “ADR, %” value ([2]; Number of excisions ≤3, low dose 100 mg, FAS)?
Its value is 38.12%.

What about the “Difference in False Positive Rates of Methylene Blue Full Dose vs. Methylene Blue Low Dose” value ([2]; Per Protocol) of the same compound?
The value was −3.03.

What about the “Difference in False Positive Rates of Methylene Blue Full Dose vs. Placebo” value ([2]; Per Protocol) of the same compound?
Its value is −7.51.

And the “Difference in False Positive Rates of Methylene Blue Low Dose vs. Placebo” value ([2]; Per Protocol)?
The value was −4.49.

And the “Absolute difference in proportion of subjects with a histologically proven adenoma between methylene blue full dose and placebo” value ([2]; excluding carcinoma, FAS)?
Its value is 9.33%.

And the “Percent increase in proportion of subjects with a histologically proven adenoma for methylene blue full dose vs placebo” value ([2]; excluding carcinoma, FAS)?
The value was 20.3%.

What about the “Percentage of subjects with a histologically proven adenoma (excluding carcinoma)” value ([2]; full dose 200 mg, FAS N=485) of the same compound?
Its value is 55.26%.

And the “Percentage of subjects with diminutive adenomas” value ([2]; full dose 200 mg, FAS N=485)?
Its value is 37.11%.

And the “Percentage of subjects with non-polypoid lesions” value ([2]; full dose 200 mg, FAS N=485)?
The value was 43.92%.

And the “Subjects with excision, %” value ([2]; full dose 200 mg, FAS N=485)?
Its value is “(73.40) %”.

And the “Total number of subjects with a histologically proven adenoma (excluding carcinoma)” value ([2]; full dose 200 mg, FAS N=485)?
Its value is 268.

And the “Total number of subjects with diminutive adenomas” value ([2]; full dose 200 mg, FAS N=485)?
Its value is 180.

What about the “Total number of subjects with non-polypoid lesions” value ([2]; full dose 200 mg, FAS N=485) of the same compound?
Its value is 213.

And the “ADR in patients with number of excisions 0-1” value ([2]; full dose 200 mg, PP)?
The value was 25.32%.

And the “ADR in patients with number of excisions ≤3” value ([2]; full dose 200 mg, PP)?
Its value is 68.24%.

What about the “Subjects with excision, %” value ([2]; full dose 200 mg, Per Protocol N=455) of the same compound?
The value was “(75.38) %”.

What about the “Subjects with at least one histologically proven Adenoma or Carcinoma (ADR), %” value ([2]; low dose 100 mg (MB tablets of Example 6), FAS N=241) of the same compound?
Its value is 51.45%.

What about the “Subjects with excision, %” value ([2]; low dose 100 mg, FAS N=241) of the same compound?
Its value is 69.71%.

What about the “False Positive Rate: subjects with excisions and without any histologically proven Adenoma or Carcinoma, %” value ([2]; low dose 100 mg, FAS) of the same compound?
Its value is 26.19%.

And the “Subjects with at least one histologically proven Adenoma or Carcinoma (ADR), %” value [2, 4]?
Its value is 53.78%.

What about the “Subjects with excision, %” value [2, 4] of the same compound?
Its value is 72.44%.

What about the “False Positive Rate: subjects with excisions and without any histologically proven Adenoma or Carcinoma, %” value ([2]; low dose 100 mg, Per Protocol) of the same compound?
The value was 25.77%.

What about the “Absolute difference in ADR between methylene blue full dose and placebo” value [2, 5] of the same compound?
Its value is 7.24%.

And the “Percent increase in ADR for methylene full dose vs placebo” value [2, 5]?
The value was 38.2%.

What about the “Absolute difference in ADR between methylene blue full dose and placebo” value [2, 6] of the same compound?
Its value is 9.15%.

And the “Percent increase in ADR for methylene full dose vs placebo” value [2, 6]?
Its value is 45.4%.

What about the “Absolute difference in ADR between methylene blue full dose and placebo” value [2, 7] of the same compound?
The value was 9.40%.

What about the “Percent increase in ADR for methylene full dose vs placebo” value [2, 7] of the same compound?
Its value is 26.2%.

And the “Absolute difference in ADR between methylene blue full dose and placebo” value [2, 8]?
Its value is 11.47%.

What about the “Percent increase in ADR for methylene full dose vs placebo” value [2, 8] of the same compound?
Its value is 40.8%.

What about the “induction of CYP isozyme 1A2” value (CYP 1A2) of the same compound?
Its value is “induces”.

And the “substrate of the membrane transport protein P-gp” value (P-gp [3])?
The value was “possible substrate”.

And the “induction of CYP isozyme 2B6” value (CYP 2B6)?
The value was “induces”.
